Reference: patent publication US6436975B1, “Pharmaceutical compositions for ulcer” (Nicox S.A., priority 2000, dated 2002)

Assays:
[1] = system: Washed human platelets; experiment: Nitric oxide generation by chemiluminiscence, platelets; type: cell-based; settings: incubation of 100 μM NO-donor, 5 minutes
Procedure: (§1) Specifically the test relates to the nitric oxide generation from the NO-donors described in the present invention, among which, for instance nitroglicerin, nicorandyl, nitroprussiate, etc., when they are put in the presence of endothelial cells (method a) or platelets (method b)
Washed human platelets, prepared analogously with what described by Radomski et al, (Br.J. Pharmacol. 92, 639-1987), were used. 0.4 ml alicuots were incubated with scalar NO-donor concentrations (1-100 μg/ml) for 5 minutes. The incubation medium (e.g. Tyrode) was then analyzed to determine the capability to generate NO, by determination of nitric oxide bv chemiluminiscence and CGMP, with the modalities described in the previous paragraph, for the analyses carried out on the endothelial cells. As to the determination by chemiluminiscence, also in this case, on the basis of a calibration curve, prepared with scalar nitrite concentrations, it was possible to quantitatively determine the generated NO concentration. For example, after incubation of 100 μM of nicorandyl, an amount equal to 35 μM of NO was generated.

[2] = system: Cells of the human umbilical vein; experiment: Nitric oxide generation by chemiluminiscence, endothelial cells; type: cell-based; settings: incubation of 100 μM NO-donor, 5 minutes
Procedure: as §1
The incubation medium (physiologic solvent, for example Tyrode) has been then analyzed to determine the capability to generate NO, by:
1) the nitric oxide disclosure by chemiluminiscence;
As regards the chemiluminiscence analysis, an amount equivalent to 100 ul was injected in the reaction chamber of a chemiluminiscence analyzer containing glacial acetic acid and potassium iodide. Nitrites/nitrates present in the medium under these conditions are converted into NO which is then determined after its reaction with ozone, with consequent light generation. As it usually occurs in the devices measuring the chemiluminiscence, the produced luminiscence is directly proportional to the generated NO levels and can be measured by the suitable photomultiplier unit of a chemiluminiscence analyzer.
The photomultiplier converts the incident light into electric voltage, which is then quantitatively recorded. On the basis of a calibration curve, prepared with scalar nitrite concentrations, it was possible to quantitatively determine the generated NO concentration. […]

[3] = system: rats; experiment: Anti-ulcer activity, gastric lesions by absolute ethanol; type: in vivo; settings: oral, 15 minutes before absolute ethanol (1 ml), evaluated one hour later; cimetidine 50 mg/Kg, composition 70 mg/Kg

SMILES	generated NO concentration [1]	generated NO concentration [2]	Gastric Damage [3]
O=C(NCCO[N+](=O)[O-])c1cccnc1 [nicorandyl, N-[2-(nitroxy)ethyl]-3-pyridine-carboxamide]	35 µM	about 10 μM	
CN/C(=N/CCSCc1nc[nH]c1C)NC#N [Cimetidine]			100%
